Assay results taken from US7566712B2, “Biaryl piperazinyl-pyridine analogues” (Neurogen Corporation, priority 2003, dated 2009).
Each block holds one compound with its values, some of them ahead of it.

Biological target: T1, human capsaicin receptor (Homo sapiens, UniProt Q8NER1)
T1 construct: pBK-CMV expression construct encoding the full length human capsaicin receptor; expressed in transfected cells
Assay: Calcium mobilization assay, determination of antagonist activity (Example 6)
Type: cell-based
Settings: Table II
Procedure, shortened: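 HEK293 clonal lines stably expressing full-length human capsaicin receptor, loaded with Fluo-3 AM in KRH buffer pH 7.4, 1–2 h at 37 °C. Compounds (1–5 μM final) preincubated 0.5–6 h at room temperature, then capsaicin at its EC50 added. FLIPR/Fluoroskan calcium signal; IC50 as 50% decrease of capsaicin response.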

[1] = determined as described in Example 6 (calcium mobilization, antagonist activity)
[2] = IC50 determined as described in Example 6 (antagonist activity, calcium mobilization)
[3] = IC50 determined as described in Example 6
[4] = determined as described in Example 6 (antagonist activity), "*" = 1 micromolar or less

T1 sequence (Q8NER1 whole entry): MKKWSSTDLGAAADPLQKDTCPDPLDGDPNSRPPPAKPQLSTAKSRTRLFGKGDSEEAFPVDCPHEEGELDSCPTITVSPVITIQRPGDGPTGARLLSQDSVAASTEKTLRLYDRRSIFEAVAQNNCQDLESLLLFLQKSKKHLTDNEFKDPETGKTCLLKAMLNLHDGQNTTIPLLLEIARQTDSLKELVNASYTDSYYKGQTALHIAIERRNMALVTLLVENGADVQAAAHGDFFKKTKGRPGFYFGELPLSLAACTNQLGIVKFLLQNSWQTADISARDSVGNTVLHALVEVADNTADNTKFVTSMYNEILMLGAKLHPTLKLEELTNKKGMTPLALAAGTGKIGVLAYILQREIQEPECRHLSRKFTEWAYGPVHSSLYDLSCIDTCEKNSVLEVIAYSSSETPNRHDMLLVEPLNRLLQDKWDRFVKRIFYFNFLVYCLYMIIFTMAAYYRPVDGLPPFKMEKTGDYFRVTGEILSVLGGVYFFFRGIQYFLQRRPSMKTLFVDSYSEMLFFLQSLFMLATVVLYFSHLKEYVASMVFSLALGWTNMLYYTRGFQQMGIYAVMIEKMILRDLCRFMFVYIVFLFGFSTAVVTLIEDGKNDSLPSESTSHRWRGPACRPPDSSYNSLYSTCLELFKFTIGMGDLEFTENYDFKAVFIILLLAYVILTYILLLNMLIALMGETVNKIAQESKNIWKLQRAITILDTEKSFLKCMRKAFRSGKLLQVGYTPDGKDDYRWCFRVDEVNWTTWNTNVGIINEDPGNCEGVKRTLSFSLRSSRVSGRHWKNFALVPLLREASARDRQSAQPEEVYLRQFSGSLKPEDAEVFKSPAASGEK

Compound: Cc1cc(-c2cc(N3CCN(c4ncccc4C(F)(F)F)CC3)nc(N3CCNC(C)C3)n2)ccc1F (stereo not drawn) [Example 641, 4-(4-fluoro-3-methylphenyl)-2-(3-methylpiperazin-1-yl)-6-{4-[3-(trifluoromethyl)pyridin-2-yl]piperazin-1-yl}pyrimidine]
- IC50 [1]: ≤ 1000 nM

Compound: CCN(CC)c1nc(-c2cncc(Cl)c2)cc(N2CCN(c3ncccc3C(F)(F)F)CC2)n1 [Example 595, 4-(5-chloropyridin-3-yl)-N,N-diethyl-6-{4-[3-(trifluoromethyl)pyridin-2-yl]piperazin-1-yl}pyrimidin-2-amine]
- IC50 [1]: ≤ 1000 nM

Compound: CCCCN1CCN(c2nc(-c3cccc(Cl)c3)nc(N3CCN(c4ncccc4C(F)(F)F)CC3)n2)CC1 [Example 444, 2-(4-butylpiperazin-1-yl)-4-(3-chlorophenyl)-6-{4-[3-(trifluoromethyl)pyridin-2-yl]piperazin-1-yl}-1,3,5-triazine]
- IC50 [3]: ≤ 1000 nM

Compound: CC1CN(C)CCN1c1nc(-c2ccc(F)c(Cl)c2)cc(N2CCN(c3ncccc3C(F)(F)F)CC2)n1 (stereo not drawn) [Example 630, 4-(3-chloro-4-fluorophenyl)-2-(2,4-dimethylpiperazin-1-yl)-6-{4-[3-(trifluoromethyl)pyridin-2-yl]piperazin-1-yl}pyrimidine]
- IC50 [1]: ≤ 1000 nM

Compound: Cc1cccc(-c2nc(N3CCOCC3)nc(N3CCN(c4ccccn4)CC3)n2)c1 [Example 234]
- IC50 (determined as described in Example 6, class symbol): ≤ 1000 nM

Compound: CCOc1cccc(-c2cc(N3CCN(c4ncccc4C(F)(F)F)C[C@H]3C)nc(N3CCOCC3)n2)c1 [Example 530, 4-(4-(3-ethoxyphenyl)-6-{(2R)-2-methyl-4-[3-(trifluoromethyl)pyridin-2-yl]piperazin-1-yl}pyrimidin-2-yl)morpholine]
- IC50 [3]: ≤ 1000 nM

Compound: Fc1ccc(-c2cc(N3CCN(c4ncccc4C(F)(F)F)CC3)nc(-c3ncco3)n2)cc1Cl [Example 635, 4-(3-chloro-4-fluorophenyl)-2-(1,3-oxazol-2-yl)-6-{4-[3-(trifluoromethyl)pyridin-2-yl]piperazin-1-yl}pyrimidine]
- IC50 [1]: ≤ 1000 nM

Continued, values first:

- IC50 [1]: ≤ 1000 nM
Compound: Cc1cc(-c2cc(N3CCN(c4ncccc4C(F)(F)F)CC3)nc(C(C)N(C)C)n2)ccc1F (stereo not drawn) [Example 681, 1-(4-(4-fluoro-3-methylphenyl)-6-{4-[3-(trifluoromethyl)pyridin-2-yl]piperazin-1-yl}pyrimidin-2-yl)-N,N-dimethylethanamine]

- IC50 [2]: ≤ 1000 nM
Compound: CC1CCCN1c1nc(-c2ccc(F)c(Cl)c2)cc(N2CCN(c3ncncc3Cl)CC2)n1 (stereo not drawn) [Example 1010, 4-(3-chloro-4-fluorophenyl)-6-[4-(5-chloropyrimidin-4-yl)piperazin-1-yl]-2-(2-methylpyrrolidin-1-yl)pyrimidine]

- IC50 [2]: ≤ 1000 nM
Compound: C[C@H]1CN(c2ncccc2Cl)CCN1c1cc(-c2ccc(F)c(Cl)c2)nc(N2CCC[C@@H]2C)n1 [Example 985, 4-(3-chloro-4-fluorophenyl)-6-[(2S)-4-(3-chloropyridin-2-yl)-2-methylpiperazin-1-yl]-2-[(2S)-2-methylpyrrolidin-1-yl]pyrimidine]

- IC50 [4]: ≤ 1000 nM
Compound: C[C@@H]1CN(c2ncccc2F)CCN1c1cc(-c2ccc(F)c(F)c2)nc(N2CCCC2)n1 [Example 896, 4-(3,4-difluorophenyl)-6-[(2R)-4-(3-fluoropyridin-2-yl)-2-methylpiperazin-1-yl]-2-pyrrolidin-1-ylpyrimidine]

- IC50 [4]: ≤ 1000 nM
Compound: Cc1ccc(C)n1-c1nc(-c2ccc(C#N)cc2)cc(N2CCN(c3ncccc3Cl)C[C@H]2C)n1 [Example 874, 4-[6-[(2R)-4-(3-chloropyridin-2-yl)-2-methypiperazin-1-yl]-2-(2,5-dimethyl-1H-pyrrol-1-yl)pyrimidin-4-yl]benzonitrile]
